Data set [1] deals with HIV transcription. To be noted: cited from earlier work.
Data set [2] relates to red blood cells. As to the kind of experiment: Hemolysis, release of hemoglobin from red blood cells. The format is cell-based. Here is the method: As such, Rev-1 and Gen-1 are both hemolytic, a property which may restrict potential use in therapy. To see whether modification of C28 sugar side chain can abolish such hemolytic effect, we acetylated the hydroxyl group of the C28 sugars with acetic anhydride. Briefly, 10 ml of pyridine and 5 ml acetic anhydride were added to a solution of pure tieghemella (Gen-1, 100 mg) in 5 ml methanol at 0° C. The solution mixture was allowed to reflux for […]. The resultant mixture was extracted with water at 20° C. as described in reference 9. The aqueous solution was washed several times with dichloromethane. The water filtrate was dried under the hood to afford oAc-Gen-1; (160 mg). We compared the hemolytic effect of Gen-1 and oAc-Gen-1 by measuring the release of hemoglobin from red blood cells in the presence of Gen.1 or o-Ac Gen.

The test system of data set [3] is wild type HIV-1 envelope. The experiment in a line: HIV-based cell-cell fusion (syncytium) assay, co-culture of HeLa-CD4+ cells and CHO-WT cells. Particulars: for antiviral entry activity: HIV entry / syncytium formation. An excerpt: Tieghemella heckelii (Sapotaceae, Th) is a large tree found in the West African rain forest. In January and February, the plant blossoms and develops ovoid fruits of 8 cm length and 7 cm diameter, which ripen in July-October. Many parts of the tree are used in traditional medicine. We have used a series of high-speed counter-current chromatography (HSCC), viral entry and infectivity assay and HIV-based cell-cell fusion assay to isolate specific HIV viral entry inhibitors from the ovoid fruits of the plants. The procedures for the isolation have been described in detail (4). Two pure saponin compounds, Arganine C (Rev 1) and Tieghemella (Gen. 1) have been isolated with the yield of 0.48% and 0.6% respectively.
In HIV infection, syncytia are the result of viral attachment and cell membrane fusion which create giant multi-nucleated cells consisting of both infected and uninfected cells. Rev. 1 and Gen. […] Rev-1 and Gen-1 are structurally identical except for one attached group at C23 (FIG. 1A). C23 glucose for Rev-1 and glucuronic acid for Gen-1 (4, 5). Their antiviral activity requires the C28 sugar chain. […] The four sugars in the substituent at the C28 position are L-arabinose, L-rhamnose, D-xylose and L-rhamnose (FIG. 1B).

Data set [4] has as its system HIV particles. The experiment in a line: HIV-1 attachment to pre-cooled HeLa CD4+ cells, viral capsid in cell lysates. To be noted: HeLa CD4+ cells at 4° C., 30-minute attachment, up to 20 μM.
Protocol: To determine whether the two saponins act exclusively at the attachment step, target HeLa CD4^+ cells were initially pre-cooled at 4° C. before viral exposure to exclude the possibility of virus internalization. Each compound, at graded concentrations, was then mixed with HIV particles and added to target cells in cold media. After a 30-minute attachment period, the cells were profusely washed to remove unbound virus. […] H9 cells (4×10^5) were first incubated with compound and then infected with virus for one hour at 37° C. in CO2 incubator to permit virus fusion and entry. The cells were then centrifuged and washed 3 times with phosphate buffered saline (PBS) to remove the unbound virus as described previously (6,7). The viral entry was determined by p24 antigen-capture assay. For the drug effect on HIV-1 replication and infection, the culture was incubated for 8 days. Viral replication was determined by the amount of HIV-1 p24 antigen in culture supernatant after 8 days of virus infection in H9 cells using the HIV/p24 monoclonal antibody assay (8). […] Only low concentrations were used for testing to minimize the cellular toxicities of the drug.
Data set [5] concerns Sp1 binding sites of the HIV long terminal repeat (LTR). To be noted: in vitro; cited from earlier work.
The test system of data set [6] is HSV-2. As to the kind of experiment: Mouse vaginal model of HSV-2 infection. The data set is classed as in vivo, female CF-1 mice. To be noted: 10 mM. An excerpt:
P4N was also found to be quite effective.

Data set [7] deals with wild type HIV-1 integrase (Human immunodeficiency virus type 1 group M subtype B, UniProt P04585). As to the kind of experiment: Disintegration assay. The format is biochemical. To be noted: equal efficacy with deletion mutant. The method, then:
(§1) To determine whether M522 and M532 are acting against the catalytic core domain specifically, disintegration assay was tested using deletion mutant IN containing only the core domain of HIV integrase. Such deletion mutant is defective for normal integration, but it is capable of catalyzing a reversal of the forward reaction, termed “disintegration”. The disintegration reaction can be assayed by using a deletion mutant HIV-1 integrase (IN^50-212) which lacks both the amino terminal zinc binding and the carboxyl terminal DNA binding domains but remains active in this assay, whereas such truncated IN loses activity in the 3′-processing and joining (strand transfer) assays. So, disintegration assay can be used to probe the site of drug-enzyme binding.

For data set [8], the target named is deletion mutant HIV-1 integrase (IN^50-212) (Human immunodeficiency virus type 1 group M subtype B, UniProt P04585). As to the kind of experiment: Disintegration assay. The format is biochemical. To be noted: IN^50-212 core domain; equal efficacy with wild type. The method, then: as §1
The target of data set [9] is T1, reverse transcriptase (Human immunodeficiency virus type 1 group M subtype B, UniProt P04585).
T1 construct: endogenous in cells; host or cells: HIV-infected cells (H9 cells named in the same paragraph)
As to the kind of experiment: Reverse transcriptase activity and viral DNA levels in infected cells. The format is cell-based, HIV. An excerpt:
(§2) a. Salvia genus of Labiaceae family contains approximately 1000 species. 78 of these are distributed in different regions in China. […] An INi search was established based on an assay-guided purification procedure utilizing different concentrations of methanol, propanol, a two-layer extraction system (low salt water/butanol), and a high resolution inverted phase HPLC (Sperisorb OD S-2).

Data set [10] has as its system H9 cells. The format is cell-based. To be noted: 192 h. Here is the method: A series of drug concentrations ranging from 1.25 μg/ml to 160 μg/ml were used for testing the cytotoxicity of M522 and M532 in H9 cells, using the MTT assay to determine the viability of H9 cells in culture. […] In fact, the drug-protected, HIV-infected H9 cells appeared to be morphologically identical to the uninfected control cells (6).
(§3) Similarly, PBMC cells were isolated from a healthy blood sample and these cells were stimulated by PHA and IL-2. PBMC (5×10^6/ml) were infected with HIV-1RTMF. The cells were treated with three combinations of drugs, M522, Gen-1 and G4N. Fresh media and drugs were added after 4 days with drug concentrations 0, 1.25, 2.5, 5, 10, 20, 40 and 80 μM. The inhibition for HIV-1 by these combinations of drugs was also examined by using p24 assay after 8 days. […] In comparison, cytotoxicity for the three drugs combined to H9 cells was also analyzed using an MTT assay.

The target of data set [11] is HIV-1 integrase (Human immunodeficiency virus type 1 group M subtype B, UniProt P04585). The experiment in a line: HIV-1 integrase catalytic activity of 3'-joining to the target DNA. The format is biochemical. To be noted: read-out: IC50, 3′-joining to the target DNA.
Source text: as §2

Data set [12] deals with HIV-1. As to the kind of experiment: Acute HIV-1 infection of H9 cells. The format is cell-based.
Source text: as §2

The subject of data set [13] is HIV. As to the kind of experiment: HIV entry in H9 cells. Particulars: compound by itself. The data set is classed as cell-based.
Source text: as §2

Data set [14] deals with HIV-1RTMF (AZT-resistant virus). The experiment in a line: HIV replication in infected H9 cells, HIV/p24 monoclonal antibody assay. Particulars: H9 cells infected with HIV-1RTMF in the presence of drug. The format is cell-based. Here is the method: The inhibitory effect of M522 and M532 against HIV replication was further examined using 5 different strains of HIV-1, drug resistant and primary isolates in the presence of a variety of drug concentrations in infected H9 cells.
A series of drug concentrations ranging from 1.25 μg/ml to 160 μg/ml were used for testing the cytotoxicity of M522 and M532 in H9 cells, using the MTT assay to determine the viability of H9 cells in culture.

The test system of data set [15] is HIV-1RTMF. As to the kind of experiment: Drug combination study in H9 cells infected with HIV-1RTMF, p24 assay. The data set is classed as cell-based. Particulars: Human immunodeficiency virus 1, H9, 192 h.
Source text: We tested drug combinations against two different cells infected with laboratory strain of HIV-1 RTMF. For these drug combinational studies, both the H9 cells and human PBMC have been used. We first tested how our inhibitors affect one specific strain of HIV which is resistant to drug against RT (HIV-1RTMF). Briefly H9 (1×10^5/ml) were infected with HIV-1RTMF strain with a multiplicity of infection of 0.1. These cells were further tested with three drugs, M522, Gen-1 and G4N, either in combination or separately (8, 10, 21B). After 4-day incubation at 37° C., H9 cells were subcultured with fresh culture medium containing appropriate concentrations 0, 1.25, 2.5, 5, 10, 20, 40 and 80 μM of each of the drugs, or of a combination of all three of the drugs, each at the indicated concentration. The inhibition for HIV-1 by these combinations of drugs was examined using p24 assay after 8 days.
as §3

Read-outs that look alike come from different tables or passages of the source.

Regarding `COc1cc(C[C@H](C)[C@H](C)Cc2ccc(O)c(O)c2)ccc1O` [3′-O-methyl NDGA], the “inhibition of HIV transcription” value in data set [1] was “specifically block HIV transcription”.
A word on the IC50: it is the midpoint of a concentration-inhibition curve. With `C[C@@H]1O[C@@H](O[C@@H]2[C@@H](O)[C@H](O[C@@H]3[C@@H](O)[C@@H](O)[C@H](O[C@H]4[C@H](OC(=O)[C@]56CCC(C)(C)C[C@H]5C5=CC[C@@H]7[C@@]8(C)C[C@H](O)[C@H](O[C@@H]9O[C@H](CO)[C@@H](O)[C@H](O)[C@H]9O)[C@@](C)(CO)[C@@H]8[C@H](O)C[C@@]7(C)[C@]5(C)C[C@H]6O)OC[C@H](O)[C@@H]4O)O[C@H]3C)OC[C@H]2O)[C@H](O)[C@H](O)[C@H]1O` [Rev.1, arganine C], the hemolytic effect entry in data set [2] (effective drug concentrations that blocked viral entry) was “hemolytic”. In addition, in data set [3], the antiviral entry activity result is given as “strongly inhibited”. Further, in [3] (HIV-based cell-cell fusion assay (FIG. 1), read-out: IC50), the IC50 worked out at 2.8 µM. For the same compound, the inhibition of attachment result in data set [4] was “dose-dependent inhibition of attachment”.
For the compound `C[C@H](Cc1ccc(OCCN2CCCCC2)c(OCCN2CCCCC2)c1)[C@@H](C)Cc1ccc(OCCN2CCCCC2)c(OCCN2CCCCC2)c1` [P4N], in data set [5], the “effect on Sp1 binding” value is reported as “disrupt Sp1 transcription factor binding”. The average scale in data set [6] is on record as 0.19. Further, the animals infected in data set [6] (10 mice per group) was 2 of 10.
Consider `CC1(C)CC[C@]2(C(=O)O)[C@H](O)C[C@]3(C)C(=CC[C@@H]4[C@@]5(C)C[C@H](O)[C@H](O[C@@H]6O[C@H](CO)[C@@H](O)[C@H](O)[C@H]6O)[C@@](C)(CO)[C@@H]5[C@H](O)C[C@]43C)[C@@H]2C1` [A-REV, 16α-hydroxyprotobassic 3-0-β-D-glycopyransoide], for which the antiviral entry activity result in data set [3] is on record as “total loss of antiviral entry activity”.
Turning to `CC1(C)CC[C@]2(C(=O)O)[C@H](O)C[C@]3(C)C(=CC[C@@H]4[C@@]5(C)C[C@H](O)[C@H](O[C@@H]6O[C@H](C(=O)O)[C@@H](O)[C@H](O)[C@H]6O)[C@@](C)(CO)[C@@H]5[C@H](O)C[C@]43C)[C@@H]2C1` [A-GEN, 16α-hydroxyprotobassic acid 3-0-β-D-glucuronopyranoside], the antiviral entry activity entry in data set [3] was “total loss of antiviral entry activity”. Further, in data set [4], the inhibition of attachment result was “totally devoid of activity”.
As to `O=C(/C=C/c1ccc(O)c2c1[C@H](C(=O)O[C@H](Cc1ccc(O)c(O)c1)C(=O)O)[C@@H](c1ccc(O)c(O)c1)O2)O[C@H](Cc1ccc(O)c(O)c1)C(=O)O` [M532, lithospermic acid B], the inhibition of disintegration entry in data set [7] and in data set [8] was “inhibited” throughout. Besides, in [9] (following drug treatment), the “levels of intracellular strong stop and full-length viral DNA” value was “remained unchanged”. The “inhibition of reverse transcriptase activity” value in [9] (infected cells) is given as “no inhibition of reverse transcriptase activity”. Moreover, in data set [10], the “CC100 (highest concentration tested, cells remained viable)” value amounted to 160 µg/mL. The IC50 was determined as 370 nM in [11] and 6.9 µM in data set [12]. For the same compound, the “prevention of HIV entry” value in data set [13] is “Neither M522 nor M532 by itself prevents HIV entry”. Further, the syncytia formation entry in data set [14] was “syncytia formation was prevented”.
`C[C@@H]1O[C@@H](O[C@@H]2[C@@H](O)[C@H](O[C@@H]3[C@@H](O)[C@@H](O)[C@H](O[C@H]4[C@H](OC(=O)[C@]56CCC(C)(C)C[C@H]5C5=CC[C@@H]7[C@@]8(C)C[C@H](O)[C@H](O[C@@H]9O[C@H](C(=O)O)[C@@H](O)[C@H](O)[C@H]9O)[C@@](C)(CO)[C@@H]8[C@H](O)C[C@@]7(C)[C@]5(C)C[C@H]6O)OC[C@H](O)[C@@H]4O)O[C@H]3C)OC[C@H]2O)[C@H](O)[C@H](O)[C@H]1O` [Gen-1, Tieghemelin]: in [2], the hemolytic effect result is given as “hemolytic”. In [2] (57 μM), the “red blood cells lysed” value amounted to 50%. Besides, in data set [3], the antiviral entry activity entry is given as “less potent”. The IC50 in data set [3] (Human immunodeficiency virus 1) amounted to 17 µM; in data set [15], 40 µM. In addition, in data set [4], the inhibition of attachment entry was “dose-dependent inhibition of attachment”.
In the case of `CC(Cc1ccc(O)c(O)c1)C(C)Cc1ccc(O)c(O)c1` (stereo not shown) [NDGA, nordihydroguaiaretic acid, reference compound], in data set [5], the “effect on Sp1 binding” value is “no effect on Sp1 binding”. Besides, the “inhibition of HIV transcription” value in data set [1] was “does not inhibit HIV transcription”.

(Values after US9259433B2, “Synergistic antiviral compositions comprising a viral attachment inhibitor, an integration inhibitor, and a proviral transcription inhibitor, and their use” (priority 2007, dated 2016).)
